# Where “and” joins values, the source holds several entries; their conditions need not be identical. Equal entries are not always repeated. Where two headings read alike, the source gives them in different places.
# How the values were obtained:
# [1] = biological target: T1, HIV-1 protease (Human immunodeficiency virus type 1 group M subtype B, UniProt P04585); test: biochemical
# Outline: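 Percent inhibition came from fluorescence of FITC-tagged cleavage product, separated by filtration from uncleaved substrate captured on streptavidin-coated beads. The enzyme (10 μl of 0.1 μM) and compound acted on a biotin/FITC dual-labelled peptide for one hour at room temperature in the dark. The reaction ran in 0.1 M sodium acetate, pH 5.5, with 1.0 M NaCl and 0.05% NP-40.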
# [2] = biological target: T2, single chain tethered (tandem) HIV protease (HIV-1 M:B_HXB2R, UniProt P04585); test: Tandem HIV protease assay; assay type: biochemical; conditions: read-out: FITC KI; Table II; enzyme HIV1TANDEM
# T2 construct: purified enzyme, FITC/biotin substrate assay
# Outline: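 Covalently tethered single-chain HIV protease dimer allows very low enzyme levels for Ki measurement. N-biotinylated, C-fluorescein-labelled peptide substrate incubated with enzyme and inhibitor at pH 5.5 in the dark for 96 h; streptavidin beads stop reaction, cleaved product filtered off and residual fluorescence fitted to obtain Ki.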
# [3] = biological target: T1, HIV-1 protease; test: biochemical; remark: listed apart in the source
# Outline: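 Biotinylated, FITC-labelled peptide substrate cleaved in 0.1 M sodium acetate pH 5.5, 1.0 M NaCl, 0.05% NP-40, room temperature. Filtered labelled product read by fluorescence; nonlinear least-squares fit.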
# [4] = tested on: human T-cell lines, e.g., MT4 and H9, infected with HIV-1IIIB; test: Retroviral replication in infected human T-cell lines; assay type: cell-based; conditions: MT4 and H9 cells infected with HIV-1IIIB
# Experimental: Several compounds of the present invention, such as N-[3-(1-[5,6-Dihydro-4-hydroxy-2-oxo-6-(2-phenethyl)-6-propyl-2H-pyran-3-yl]-2,2-dimethylpropyl)phenyl]-1-methyl-1H-imidazole-4-sulfonamide were tested in known human cell lines, such as human T-cell lines, e.g., MT4 and H9, which were infected with HIV-1IIIB, and certain of these compounds were further tested in peripheral blood mononuclear cells (PBMC), which were infected with HIV-1JRCSF (a clinical isolate).
# [5] = biological target: T3, HIV-2 (Human immunodeficiency virus type 2 subtype A, UniProt P04584); test: FITC Ki, enzyme HIV-2; assay type: biochemical; conditions: Table II
# T3 construct: tested in the HIV protease screening assay and/or tandem HIV protease assay
# T3 sequence (P04584 514-612 limits assumed): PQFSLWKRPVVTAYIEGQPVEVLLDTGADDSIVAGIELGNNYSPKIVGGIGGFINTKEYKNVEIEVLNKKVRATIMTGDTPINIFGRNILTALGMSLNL
# [6] = Table II, enzyme HIV-1, DOSE 0.123 (unit not given)
# [7] = Table II, enzyme HIV-1, DOSE 0.370 (unit not given)
# [8] = Table II, enzyme HIV-1, DOSE 1.100 (unit not given)
# [9] = Table II, enzyme HIV-1, DOSE 3.300 (unit not given)
# [10] = Table II, enzyme HIV-1, DOSE 10.000 (unit not given)
# [11] = Table II, enzyme HIV-1, DOSE 30.000 (unit not given)
# [12] = Table II, enzyme HIV-1, read-out: FITC KI
Structure (SMILES),"PROTEASE % INHIB. [1, 6] [%]","PROTEASE % INHIB. [1, 7] [%]","PROTEASE % INHIB. [1, 8] [%]","PROTEASE % INHIB. [1, 9] [%]","PROTEASE % INHIB. [1, 10] [%]","PROTEASE % INHIB. [1, 11] [%]",Ki [2] [nM],"Ki ([3]; Table I, read-out: HIV Protease FITC Assay Ki) [nM]",inhibition of retroviral replication [4],PROTEASE % INHIB. [1],"Ki [3, 12] [nM]",Ki [5] [nM]
"CCC[C@]1(CCc2ccc(F)cc2)CC(O)=C([C@H](c2cccc(NS(=O)(=O)c3ccc(C#N)cn3)c2)C(C)(C)C)C(=O)O1 (single isomer, unassigned) [Example 348, N-[3-{1(S or R)-(4-Hydroxy-5,6-dihydro-2-oxo-6(S or R)-(2-(4-fluorophenyl)ethyl)-6-propyl-2H-pyran-3-yl)-2,2-dimethyl-propyl}phenyl]-5-cyanopyridine-2-sulfonamide]",53.47,78.32,89.84,92.96,96.28,84.67,1.96,,,,,
"CCC[C@@]1(CCc2ccc(F)cc2)CC(O)=C([C@@H](c2cccc(NS(=O)(=O)c3cn(C)cn3)c2)C(C)(C)C)C(=O)O1 (single isomer, unassigned) [Example 349, N-[3-{1(R or S)-(4-Hydroxy-5,6-dihydro-2-oxo-6(R or S)-(2-(4-fluorophenyl)ethyl)-6-propyl-2H-pyran-3-yl)-2,2-dimethyl-propyl}phenyl]-1-methyl-1H-imidazole-4-sulfonamide]",74.5,88.21,99.92,104.99,103.49,98.24,0.111,,,,,
"CC(C)(C)C(C1=C(O)CC(CCc2ccccc2)(CCc2ccccc2)OC1=O)c1cccc(NS(=O)(=O)c2ccc(N)cn2)c1 (single isomer, unassigned) [Example 356, N-[3-{1(S or R)-(4-Hydroxy-5,6-dihydro-2-oxo-6,6-bis(2-phenyl-ethyl)-2H-pyran-3-yl)-2,2-dimethylpropyl}phenyl]-5-amino-pyridine-2-sulfonamide]",54.96,71.75,90.19,92.28,100.22,95.16,1.1,,,,,
"CCCC1(CCc2ccccc2)CC(O)=C(C(c2cccc(NS(=O)(=O)c3cn(C)cn3)c2)C(C)(C)C)C(=O)O1 (stereo not shown) [Example 250, N-[3-(1-[5,6-Dihydro-4-hydroxy-2-oxo-6-(2-phenethyl)-6-propyl-2H-pyran-3-yl]-2,2-dimethylpropyl)phenyl]-1-methyl-1H-imidazole-4-sulfonamide]",,,,,,,,1.2,inhibit retroviral replication,,,
"CCCC1(CCC)CC(O)=C(C(CC)c2cccc(NS(=O)(=O)c3ccc(C(F)(F)F)cn3)c2)C(=O)O1 (stereo not shown) [Example 280, 5-Trifluoromethyl-N-[3-[1-[4-hydroxy-2-oxo-6,6-di-n-propyl-5,6-dihydro-2H-pyran-3-yl]-propyl]-phenyl]-2-pyridinesulfonamide]",95.28,94.98,93.01,86.69,78.64,76.85,0.1,,,,,
"CCCC1(CCc2ccccc2)CC(O)=C(C(c2cccc(NS(=O)(=O)c3ccc(N)cn3)c2)C(C)(C)C)C(=O)O1 (stereo not shown) [Example 299, 5-Amino-N-[3-(1-[5,6-dihydro-4-hydroxy-2-oxo-6-(2-phenylethyl)-6-propyl-2H-pyran-3-yl]-2,2-dimethylpropyl)phenyl]-2-pyridinesulfonamide]",,,,,,,0.2,,,83.51 and 104.76 and 117.95 and 115.61 and 128.03 and 102.89,,
"CCC(C1=C(O)CC(CCc2ccccc2)(CCc2ccccc2)OC1=O)c1cccc(NS(=O)(=O)c2cn(C)cn2)c1 (stereo not shown) [Example 330, N-[3-{1-(4-Hydroxy-5,6-dihydro-2-oxo-6,6-bis(2-phenylethyl)-2H-pyran-3-yl)propyl}phenyl]-1-methyl-1H-imidazole-4-sulfonamide]",93.74,94.32,93.66,85.63,87.9,69.82,0.524,,,,,
"CCC(C1=C(O)CC(CCc2ccccc2)(CCc2ccccc2)OC1=O)c1cccc(NS(=O)(=O)c2ccc(C#N)cn2)c1 (stereo not shown) [Example 331, N-[3-{1-(4-Hydroxy-5,6-dihydro-2-oxo-6,6-bis(2-phenylethyl)-2H-pyran-3-yl)propyl}phenyl]-5-cyanopyridine-2-sulfonamide]",99.76,104.06,108.51,99.3,103.28,93.3,0.272,,,,,
"CCCC1(CCc2ccc(F)cc2)CC(O)=C(C(CC)c2cccc(NS(=O)(=O)c3ccc(C(N)=O)cn3)c2)C(=O)O1 (stereo not shown) [Example 332, N-[3-{1-(4-Hydroxy-5,6-dihydro-2-oxo-6-(2-(4-fluorophenyl)ethyl)-6-propyl-2H-pyran-3-yl)propyl}phenyl]-5-carbamoylpyridine-2-sulfonamide]",81.87,85.65,86.23,93.28,91.68,95.08,0.4,,,,1.6,
"CCCC1(CCC)CC(O)=C(C(CC)c2cccc(NS(=O)(=O)c3ccc(C(N)=O)cn3)c2)C(=O)O1 (stereo not shown) [Example 334, N-[3-{1-(4-Hydroxy-5,6-dihydro-2-oxo-6,6-dipropyl-2H-pyran-3-yl)propyl}phenyl]-5-carbamoylpyridine-2-sulfonamide]",93.49,90.25,94.57,102.47,97.61,96.3,0.45,,,,,
"N#Cc1ccc(S(=O)(=O)Nc2cccc(CC3=C(O)CC(CCc4ccccc4)(CCc4ccccc4)OC3=O)c2)nc1 [Example 353, N-[3-{1-(4-Hydroxy-5,6-dihydro-2-oxo-6,6-bis(2-phenylethyl)-2H-pyran-3-yl)methyl}phenyl]-5-cyanopyridine-2-sulfonamide]",51.83,68.49,70.71,63.96,51.8,43.93,5.3,,,,10.4,
CCC(C1=C(O)C2CCCCC2OC1=O)c1cccc(NS(=O)(=O)c2ccc(C#N)cn2)c1 (stereo not shown) [Example 370],92.81,87.87,102.89,109.33,113.79,98.14,0.05,,,,0.59,0.05
"CC(C)(C)C(C1=C(O)C2CCCCCCC2OC1=O)c1cccc(NS(=O)(=O)c2ccc(C#N)cn2)c1 (stereo not shown) [Example 373, 5-Cyano-N-[3-[2,2-dimethyl-1-(4a,5,6,7,8,9,10,10a-octahydro-4-hydroxy-2-oxo-2H-cycloocta[b]pyran-3-yl)propyl]phenyl]-2-pyridinesulfonamide]",90.71,90.35,103.83,88.72,85.75,89.53,0.2,,,,,

# From patent publication US6169181A, “Compounds useful to treat retroviral infections” (Pharmacia & Upjohn Company, priority 1998, dated 2001)
